Measured values from patent US5591749A, “Imidazopyridines as serotonergic 5-HT3 -antagonists” (G. D. Searle & Co., priority 1995, dated 1997).
“And” between values parts separate entries of the source, which are not always exact repeats. Identical values can stand only once. Counter-ions that a name gives are not always drawn. Like-named read-outs stand apart in the source and are kept apart here.

Columns and labels:
5-HT3 = target: T1, 5-HT3 (Mus musculus, UniProt P23979); test: 5-HT3 binding, NG108-15 cells
T1 construct: NG108-15 Cells; endogenous in cells; host or cells: NG108-15 cells
T1 sequence (P23979 24-489): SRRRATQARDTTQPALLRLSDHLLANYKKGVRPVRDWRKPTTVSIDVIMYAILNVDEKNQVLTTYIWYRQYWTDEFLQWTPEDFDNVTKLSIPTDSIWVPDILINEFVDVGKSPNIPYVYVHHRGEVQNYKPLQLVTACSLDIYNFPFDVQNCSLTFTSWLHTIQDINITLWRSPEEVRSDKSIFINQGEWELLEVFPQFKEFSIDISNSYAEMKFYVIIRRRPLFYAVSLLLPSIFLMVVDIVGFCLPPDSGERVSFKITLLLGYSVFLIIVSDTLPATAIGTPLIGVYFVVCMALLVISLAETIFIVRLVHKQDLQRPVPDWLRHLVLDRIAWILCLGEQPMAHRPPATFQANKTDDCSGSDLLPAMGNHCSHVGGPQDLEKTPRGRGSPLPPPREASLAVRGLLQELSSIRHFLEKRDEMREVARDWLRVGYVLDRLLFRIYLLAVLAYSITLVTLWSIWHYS
Excerpt: (§1) 5-HT3 antagonism can be determined by the radioligand receptor binding assay as described herein and in the in vivo Bezold-Jarisch reflex procedure.

5-HT-induced bradycardia = test: Bezold-Jarisch reflex (5-HT-induced bradycardia) in pentobarbital anesthetized mice; format: in vivo
Description: as §1
The test sample is administered i.p. (mg/kg) to a group of 3 mice. […] A greater than 50 percent (>50) reduction in the bradycardic response relative to vehicle-treated control mice is considered significant.
This method has been described by Saxena, P. R. and Lawang, A., Arch. Int. Pharmacodyn., 277:235-252, 1985.

5-HT3 receptor = target: T2, 5-HT3 receptor (Rattus norvegicus, UniProt P35563); test: [3H]-GR65630 radioligand receptor binding assay, rat brain cortex membranes; conditions: for Hill Coefficient: 0.2 nM [3H]-GR65630
T2 construct: Brain cortices are obtained from male rats and a membrane fraction prepared by standard techniques; from tissue; host or cells: rat brain cortex membranes
T2 sequence (P35563 24-483): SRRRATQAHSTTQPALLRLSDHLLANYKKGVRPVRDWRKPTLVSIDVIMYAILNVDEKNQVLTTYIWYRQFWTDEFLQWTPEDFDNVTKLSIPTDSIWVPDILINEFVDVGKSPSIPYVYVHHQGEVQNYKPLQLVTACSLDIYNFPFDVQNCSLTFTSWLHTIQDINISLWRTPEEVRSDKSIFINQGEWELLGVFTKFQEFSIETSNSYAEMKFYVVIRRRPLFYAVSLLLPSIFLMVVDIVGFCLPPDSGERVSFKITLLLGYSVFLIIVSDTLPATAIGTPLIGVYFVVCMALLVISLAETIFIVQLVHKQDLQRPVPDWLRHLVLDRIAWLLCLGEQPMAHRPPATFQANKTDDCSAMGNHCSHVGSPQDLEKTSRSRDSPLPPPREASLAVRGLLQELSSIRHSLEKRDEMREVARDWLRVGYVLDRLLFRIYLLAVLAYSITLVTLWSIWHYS
Description: as §1
GR65630 binds to the 5-HT3 receptor. Brain cortices are obtained from male rats and a membrane fraction prepared by standard techniques. 0.04 mg of membrane prep is incubated with 0.2 nM [^3 H]-GR656630 for 60 minutes at 22° C. […] Membranes are filtered and washed 3 times and the filters are counted to determine [3H]-GR65630 specifically bound.*
Effect of Reference Compounds on
Kilpatrick GJ, Jones BJ and Tyers MB. Identification and distribution of 5-HT3 receptors in rat brain using radioligand binding. Nature, 330: 746-748, 1987.

[1] = several examples have two IC50 values, read-out: 5-HT3 binding: NG108-15 cells IC50
[2] = Mus musculus, ip, 0.5 h, read-out: Minimum Effective Dose (MED)
[3] = Mus musculus, ip, 0.5 h; read-out: Minimum Effective Dose (MED)

For O=C(N[C@H]1CCN2CCC[C@@H]1C2)c1cc(Cl)cn2ccnc12 (relative stereo) [Example 1, endo-N-(1-Azabicyclo[3.3.1]nonan-4-yl)-6-chloroimidazo[1,2-a]pyridine-8-carboxamide, dihydrochloride], the Ki (5-HT3) was 137 nM, the “Bezold Jarisch reflex (mice); % Inhibition @ Dose (IP)” value (5-HT-induced bradycardia; 1 mg/kg i.p.) was 68% and the “Bezold Jarisch reflex (mice); % Inhibition @ Dose (IP)” value (5-HT-induced bradycardia; 3 mg/kg i.p.) was 73%. For the same compound, the “Bezold Jarisch reflex (mice); % Inhibition @ Dose (IP)” value (5-HT-induced bradycardia; 10 mg/kg i.p.) was 87%.

In the case of O=C(N[C@H]1[C@H]2C[C@@H]3CN(C2)C[C@@H]31)c1cc(Cl)cn2ccnc12 (relative stereo) [Example 9, (±)-endo-N-(Hexahydro-1H-2,5β-methano-3aα,6aα-cyclopenta[c]pyrrol-4α-yl)-6-chloroimidazo[1,2-a]pyridine-8-carboxamide, monohydrochloride], the Ki (5-HT3) is reported as 64 nM and the IC50 (5-HT3; [1]) is reported as 16 nM and 127 nM.

For O=C(N[C@H]1[C@H]2C[C@@H]3CN(C2)C[C@@H]31)c1cccn2ccnc12 (relative stereo) [Example 10, (±)-endo-N-(Hexahydro-1H-2,5β-methano-3aα,6aα-cyclopenta[c]pyrrol-4α-yl)imidazo[1,2-a]pyridine-8-carboxamide, hydrochloride], the Ki (5-HT3) was 122 nM, the IC50 (5-HT3; [1]) was 200 nM and 243 nM and the “Bezold Jarisch reflex (mice); % Inhibition @ Dose (IP)” value (5-HT-induced bradycardia; 10 mg/kg i.p.) was 81%.

For CO[C@@H]1CN(CCCOc2ccc(F)cc2)CC[C@@H]1NC(=O)c1cccn2ccnc12 (relative stereo) [Example 13, Cis-N-[[3-(4-Fluorophenoxy)propyl]-3-methoxy-4piperidinylamine]imidazo[1,2-a]pyridine-8-carboxamide], the “Bezold Jarisch reflex (mice); % Inhibition @ Dose (IP)” value (5-HT-induced bradycardia; 10 mg/kg i.p.) was 23%.

With CCc1cc(C(=O)N[C@H]2[C@H]3C[C@@H]4CN(C3)C[C@@H]42)c2ccccn12 (relative stereo) [Example 15, (±)-endo-N-(Hexahydro-1H-2,5β-methano-3aα,6aα-cyclopenta[c]pyrrol-4aα-yl)-3-ethylindolizine-1-carboxamide monohydrochloride] the IC50 (5-HT3; [1]) was 26.3 nM.

In the case of CCc1nc(C(=O)N[C@H]2[C@H]3C[C@@H]4CN(C3)C[C@@H]42)c2ccccn12 (relative stereo) [Example 16, (±)-endo-N-(Hexahydro-1H,2,5β-methano-3aα,6aα-cyclopenta[c]pyrrol-4α-yl)-3-ethylimidazo[1,5-a]pyridine-1-carboxamide, monohydrochloride], the IC50 (5-HT3; [1]) is reported as 30 nM.

With CN1C2CCCC1CC(NC(=O)c1nn(C)c3ccccc13)C2 (stereo not shown) [BRL-43694, reference compound] the minimal effective dose (5-HT-induced bradycardia; [2]) was 0.05 mg/kg.

Cl.Cl.O=C(NC1CCN2CCCC1C2)c1cccn2ccnc12 (stereo not drawn) [Example 2, endo-N-(1-Azabicyclo[3.3.1]nonan-4-yl)imidazo[1,2-a]pyridine-8-carboxamide, dihydrochloride] was tested, and the “Bezold Jarisch reflex (mice); % Inhibition @ Dose (IP)” value (5-HT-induced bradycardia; 5 mg/kg i.p.) was 1% and the “Bezold Jarisch reflex (mice); % Inhibition @ Dose (IP)” value (5-HT-induced bradycardia; 10 mg/kg i.p.) was 53%.

For CN1[C@@H]2CC[C@H]1C[C@@H](NC(=O)c1cc(Cl)cn3ccnc13)C2 [Example 3, endo-N-(8-Methyl-8-azabicyclo [3.2.1]octan-3-yl)-6-chloroimidazo[1,2-a]pyridine-8-carboxamide, dihydrochloride], the Ki (5-HT3) was 50 nM and the IC50 (5-HT3; [1]) was 19.3 nM and 99 nM.

For CN1[C@@H]2CC[C@H]1C[C@@H](NC(=O)c1cccn3ccnc13)C2 [Example 4, endo-N-(8-methyl-8-azabicyclo[3.2.1]octan-3-yl)imidazo [1,2-a]pyridine-8-carboxamide, hydrochloride], the Ki (5-HT3) was 416 nM, the IC50 (5-HT3; [1]) was 500 nM and 831 nM and the “Bezold Jarisch reflex (mice); % Inhibition @ Dose (IP)” value (5-HT-induced bradycardia; 3 mg/kg i.p.) was 2%. The “Bezold Jarisch reflex (mice); % Inhibition @ Dose (IP)” value (5-HT-induced bradycardia; 10 mg/kg i.p.) was 82%.

With CN1[C@@H]2CC[C@H]1C[C@H](NC(=O)c1cccn3ccnc13)C2 [Example 5, exo-N-(8-methyl-8-azabicyclo[3.2.1]octan-3-yl)imidazo[1,2-a]pyridine-8-carboxamide, hydrochloride] the Ki (5-HT3) was 314 nM, the IC50 (5-HT3; [1]) was 475 nM and 628 nM and the “Bezold Jarisch reflex (mice); % Inhibition @ Dose (IP)” value (5-HT-induced bradycardia; 10 mg/kg i.p.) was 80%.

For CN1[C@@H]2CCC[C@H]1C[C@@H](NC(=O)c1cc(Cl)cn3ccnc13)C2 [Example 6, endo-N-(9-Methyl-9-azabicyclo[3.3.1]nonan-3-yl)-6-chloroimidazo[1,2-a]pyridine-8-carboxamide hydrochloride], the Ki (5-HT3) was 4.9 nM.

In the case of O=C(NC1CN2CCC1CC2)c1cc(Cl)cn2ccnc12 (stereo not shown) [Example 7, N-(1-Azabicyclo[2.2.2]octan-3-yl)-6-chloroimidazo[1,2-a]pyridine-8-carboxamide dihydrochloride], the Ki (5-HT3) is reported as 12 nM and the IC50 (5-HT3; [1]) is reported as 17.5 nM and 23 nM.

In the case of O=C(NC1CN2CCC1CC2)c1cccn2ccnc12 (stereo not shown) [Example 8, N-(1-Azabicyclo[2.2.2]octan-3-yl)imidazo[1,2-a]pyridine-8-carboxamide, dihydrochloride], the IC50 (5-HT3; read-out: 5-HT3 binding: NG108-15 cells IC50, several examples have two IC50 values) is reported as 70 nM, the “Bezold Jarisch reflex (mice); % Inhibition @ Dose (IP)” value (5-HT-induced bradycardia; 0.5 mg/kg i.p.) is reported as 82% and the “Bezold Jarisch reflex (mice); % Inhibition @ Dose (IP)” value (5-HT-induced bradycardia; 2.5 mg/kg i.p.) is reported as 88%. The “Bezold Jarisch reflex (mice); % Inhibition @ Dose (IP)” value (5-HT-induced bradycardia; 5 mg/kg i.p.) was 95% and the “Bezold Jarisch reflex (mice); % Inhibition @ Dose (IP)” value (5-HT-induced bradycardia; 10 mg/kg i.p.) was 100%.

O=C(NC1C2CC3CC1CN(C3)C2)c1cc(Cl)cn2ccnc12 (stereo not drawn) [Example 11, exo-N-(1-azatricyclo[3.3.1.1^3,7]decan-4-yl)-6-chloroimidazo[1,2-a]pyridine-8-carboxamide, monohydrochloride] was tested, and the IC50 (5-HT3; [1]) was > 100 nM.

Work on CCN(CC)CCNC(=O)c1cccn2ccnc12 [Example 12, N-[2-(Diethylamino)ethyl]imidazo[1,2-a]pyridine-8-carboxamide] yielded an IC50 (5-HT3; [1]) of 17 nM.

With Cc1[nH]cnc1CCC(=O)c1cn(C)c2ccccc12 [GR65630] the Bmax (5-HT3 receptor; [3H]-GR65630, rat cortex membranes) was 154 fmol/mg protein and the “Specific Binding” value (5-HT3 receptor; [3H]-GR65630, non-specific binding with 1 uM ICS 205-930) was 70.

In the case of Cc1nccn1CC1CCc2c(c3ccccc3n2C)C1=O (stereo not shown) [GR-38032, reference compound], the minimal effective dose (5-HT-induced bradycardia; [3]) is reported as 0.5 mg/kg.

For CN1[C@@H]2CC[C@H]1C[C@@H](OC(=O)c1c[nH]c3ccccc13)C2 [ICS 205-930], the “Hill Coefficient” value (5-HT3 receptor) was 1.0.

c1ccc2nc(N3CCNCC3)ccc2c1 [Quipazine] was tested, and the “Hill Coefficient” value (5-HT3 receptor) was 0.86.

COc1ccc2[nH]cc(C3=CCNCC3)c2c1 [RU24969] was tested, and the “Hill Coefficient” value (5-HT3 receptor) was 1.0.

In the case of COc1cc(N)c(Cl)cc1C(=O)NC1CN2CCC1CC2 (stereo not shown) [Zacopride], the “Hill Coefficient” value (5-HT3 receptor) is reported as 0.86.

COc1cc(N)c(Cl)cc1C(=O)NC1CCN(CCCOc2ccc(F)cc2)CC1OC (stereo not shown) [cisapride, reference compound] was tested, and the minimal effective dose (5-HT-induced bradycardia; [3]) was 5 mg/kg.

For CN1CCC(=C2c3ccccc3C=Cc3ccccc32)CC1 [cyproheptadine, reference compound], the minimal effective dose (5-HT-induced bradycardia; [3]) was 5 mg/kg.

O=c1[nH]c2ccccc2n1CCCN1CCC(n2c(=O)[nH]c3cc(Cl)ccc32)CC1 [domperidone, reference compound] was tested, and the minimal effective dose (5-HT-induced bradycardia; [2]) was > 10 mg/kg.

With O=C(c1ccc(F)cc1)C1CCN(CCn2c(=O)[nH]c3ccccc3c2=O)CC1 [ketanserin, reference compound] the minimal effective dose (5-HT-induced bradycardia; [3]) was > 10 mg/kg.

Compound CNC1(C)C2CCC(C2)C1(C)C (stereo not shown) [mecamylamine, reference compound] has a minimal effective dose (5-HT-induced bradycardia; [3]) of 2.5 mg/kg.

In the case of CC[C@@H](CO)NC(=O)[C@@H]1C=C2c3cccc4c3c(cn4C)C[C@H]2N(C)C1 [methysergide, reference compound], the minimal effective dose (5-HT-induced bradycardia; [2]) is reported as > 10 mg/kg.

In the case of CCN(CC)CCNC(=O)c1cc(Cl)c(N)cc1OC [metoclopramide, reference compound], the minimal effective dose (5-HT-induced bradycardia; [2]) is reported as 5 mg/kg.

CN1[C@@H]2C[C@@H](OC(=O)[C@H](CO)c3ccccc3)C[C@H]1[C@@H]1O[C@@H]12 [scopolamine, reference compound] gave a minimal effective dose (5-HT-induced bradycardia; [2]) of 2.5 mg/kg.
